According to US20030166004A1, “Endothelial-cell binding peptides for diagnosis and therapy” (priority 2001, published 2003):

How the values were obtained:
[1] = tested on: bovine capillary endothelial cells (BCE); test: BCE proliferation assay (FGF-stimulated, CyQUANT); type: cell-based; conditions: 72 h
Method: (§1) We performed proliferation assays to determine the effect of the synthetic EC binding peptides on the proliferation of endothelial cells. In these assays the proliferation of bovine capillary endothelial (BCE), human microvascular endothelial (HMVEC) and human vascular endothelial cells (HUVEC) was stimulated by FGF and VEGF165 as indicated on FIG. 4. The effect of increasing concentration of synthetic EC binding peptides was measured on the proliferation of the stimulated cells. After the 72 h incubation the media was removed, the plates were washed two times with PBS and frozen at −80° C. Proliferation of the BCE cells was accessed using the CyQUANT® fluorescent cell proliferation assay kit according to the manufacturer's recommendations.
(§2) In the MSA-peptide fusions the peptide sequence was inserted into a cysteine constrained loop between amino acids 53 and 62. […]
The transfected COS7-L cells were cultured in defined serum free media (VP-SFM). […] The concentration of the albumin proteins was determined by Western blot analysis of each preparation using a rabbit anti-MSA antibody and using purified MSA of known concentration to generate a standard curve. Following development of the blot and exposure to film the autoradiographs were analyzed using the Gel Doc 1000 image analysis system and Molecular Analyst software (BioRad). […]

HUVEC cells = test: HUVEC proliferation assay (FGF-stimulated); type: cell-based, human
Method: as §1, §2
The transfected COS7-L cells were cultured in defined serum free media (VP-SFM). […] The concentration of the albumin proteins was determined by Western blot analysis of each preparation using a rabbit anti-MSA antibody and using purified MSA of known concentration to generate a standard curve. Following development of the blot and exposure to film the autoradiographs were analyzed using the Gel Doc 1000 image analysis system and Molecular Analyst software (BioRad).

Row | Substance | inhibition of BCE proliferation (in words, active range) [1] | inhibition of HUVEC proliferation (in words, active range) (HUVEC cells)
1 | MSA-myc: MSA with Myc epitope peptide EQKLISEEDL inserted between Glu 57 and Ser 58 (negative control) | did not significantly affect | did not significantly affect
2 | MSA: full-length mouse serum albumin (negative control) | did not significantly affect | did not significantly affect
